Key:
[1] = test system: prostate cancer cell line PC3; experiment: Anti-prostate cancer screening, anti-androgenic bioassay (wild type AR transactivation, MMTV-luciferase) in PC-3 cells; format: cell-based, Human; settings: PC-3 cells transfected with wild type AR, 1 nM DHT, 24 h, mean of three separate experiments
Description: (§1) Human prostate cancer cell lines LNCaP and PC-3 were maintained in RPMI 1640 medium and DMEM medium, respectively. Both media were supplemented with penicillin (25 units/mL), streptomycin (25 μg/mL), and 10% fetal calf serum. For the androgen receptor transactivation assay, an androgen-dependent reporter gene transcription test was employed as the primary screening for potential anti-androgen identification. This assay was first performed in LNCaP cells, which express a clinically relevant mutant AR.
Wild type AR transactivation assay was performed in PC-3 host cells, which lack an endogenous, functional AR.
(§2) Cells were plated in 24-well tissue culture dishes for 24 hours (PC-3 cells) or 48 hours (LNCaP cells) prior to transfection. Subsequently, LNCaP cells were transfected with a reporter gene, MMTV-luciferase, which contains MMTV-LTR promoter and androgen receptor binding element, and PRL-SV40, which served as an internal control for transfection efficiency. PC-3 cells were transfected with a wild type AR expression plasmid, pSG5AR, in addition to the aforementioned MMTV-luciferase reporter gene and PRL-SV40 internal control. SuperFect (Qiagen, Chatsworth, Calif.) was employed as the transfection reagent following manufacturer's recommendations.
(§3) At the end of a 5-hour transfection period, the medium was changed to DMEM or RPMI 1640 medium, supplemented with 10% charcoal dextran-stripped (that is, androgen-depleted) serum. After 24 h, the cells were treated with 1 nM of DHT and/or test compounds at the designated concentration for another 24 h. The cells were harvested for luciferase activity assay using the Dual Luciferase Assay System (Promega, Madison, Wis.).
(§4) The derived data were expressed as relative luciferase activity normalized to the internal luciferase control. […] The results are reported in Table 3, and reflected in FIGS. 4 and 5.

5α-reductase = experiment: In vivo 5α-reductase inhibitor biological assay; parameters: species or system male Sprague-Dawley rats; settings: rats treated subcutaneously from postnatal third day until seven weeks; mean of three separate experiments
[2] = test system: prostate cancer cell line LNCaP; experiment: Anti-prostate cancer screening, anti-androgenic bioassay (AR transactivation, MMTV-luciferase) in LNCaP cells; format: cell-based, Human; settings: 1 nM DHT, 24 h, mean of three separate experiments
Description: as §1, §2, §3
as §4, with “control. Cells cultured in medium containing DHT (androgen), as a positive control, induced a marked reporter gene expression.” for “control.”

[3] = biological target: rat prostate testosterone 5α-reductase; experiment: In vitro 5α-reductase inhibitor enzymatic assay (rat ventral prostate homogenate, [3H]testosterone conversion); format: biochemical; settings: pH 6.5, 37° C., 30 min, mean of three separate experiments
Description: A homogenate of the ventral prostate gland of male Sprague-Dawley rats was prepared, and testosterone 5α-reductase inhibition was measured using the methods previously reported in Iwai, A., et al., “Spectrophotometric Method for the Assay of Steroid 5α-reductase activity of rat liver and prostate microsomes”, Analytical Sciences 2013, 29: 455-459. Both the type 1 and the type 2 isozymes are present in the ventral prostate of the rat. In the assay, rat prostate extracts were used in a neutral pH buffer, and both isozymes were assayed.
The ventral prostate glands were excised and minced with a pair of scissors. The 20 w/v % homogenates were prepared with a glass-glass homogenizer in medium A (sucrose 0.32 M, dithiothreitol 0.1 mM, and sodium phosphate 20 mM, pH 6.5). The homogenate was filtered with surgical gauze and then centrifuged at 3000×g for 10 min. The pellets were suspended in medium A at a protein concentration of 20 mg/ml by triturating sequentially through an 18-gauge needle, and then a 20-gauge needle.
To 40 μl of the enzyme suspension, 10 μl of test sample in ethanol or ethanol alone and a mixture containing 0.525 ml of reaction solution consisting of dithiothreitol 1 mM, sodium phosphate 40 mM, pH 6.5, NADPH 5×10^−5 M, and [1,2,6,7^−3H]testosterone 2.2×10^−9 M were added. The assay mixture was incubated at 37° C. for 30 min. The reaction was stopped by the addition of 1 ml of ethyl acetate, and 50 μl of the upper phase was separated on a silica gel plate in the developing solvent system of ethyl acetate/cyclohexane, at a ratio of 1:1. The zones corresponding to the testosterone and 5α-dihydrotestosterone were cut into fragments. Each fragment was added to 5 ml of Aquasol-2 and counted with a liquid scintillation counter to determine ^3H radioactivity.
The inhibitory activity of each test sample was calculated as follows: Rate of enzyme reaction (R,%)=D/(T+D)×100 Inhibitory activity (%)=(1−Rsample/Rcontrol)×100 where D and T are the ^3H radioactivity recovered. The results are reported in Table 1, and reflected in FIG. 2.

IC50 ([1]; Homo sapiens) | IC50 ([2]; Homo sapiens) | IC50 [3] | melting point | IC50 [1] | IC50 [2] | Structure (SMILES) | ED50 of the 5α-reductase inhibitors activities (5α-reductase)
11.14 ± 0.09 nM | 2.33 ± 0.05 nM | 0.19 ± 0.02 nM | – | – | – | CC(C)C1=CC2=CCC3C(C)(C(=O)Nc4ccccc4)CC(O)CC3(C)C2CC1 (centres unmarked) [Compound 4c, Phenyl-2-hydroxy-abieta-7,13-dien-18-carboxamide] | 38 ± 0.45 nM
83.5 ± 2.3 nM | 7.8 ± 0.09 nM | 0.88 ± 0.07 nM | – | – | – | CC(C)C1=CC2=CC(O)C3C(C)(C(=O)Sc4ccccc4)CCCC3(C)C2CC1 (centres unmarked) [Compound 5b, Phenyl-6-hydroxy-abieta-7,13-dien-18-thioate] | 88 ± 0.89 nM
18.2 ± 11 nM | 3.24 ± 0.04 nM | 0.22 ± 0.03 nM | – | – | – | CC(C)C1=CC2=CCC3C(C)(C(=O)Oc4ccccc4)CC(O)CC3(C)C2CC1 (centres unmarked) [Compound 4a, Phenyl-2-hydroxy-abieta-7,13-dien-18-oate] | 44 ± 0.65 nM
– | – | 11230 ± 23 nM | – | – | – | CC(C)(C#N)c1cc(Cn2cncn2)cc(C(C)(C)C#N)c1 [Anastrozole, anastrozole, reference compound] | 1090 ± 3.4 nM
– | > 100000 nM | 60 ± 1.2 nM | – | – | – | CC(C)(C)NC(=O)[C@H]1CC[C@H]2[C@@H]3CC[C@H]4NC(=O)C=C[C@]4(C)[C@H]3CC[C@]12C [Finasteride, finasteride, reference compound] | 170 ± 7.9 nM
66.2 ± 2.3 nM | 5.78 ± 0.03 nM | 0.68 ± 0.08 nM | – | – | – | CC(C)C1=CC2=CC(O)C3C(C)(C(=O)Nc4ccccc4)CCCC3(C)C2CC1 (centres unmarked) [Compound 5c, Phenyl-6-hydroxy-abieta-7,13-dien-18-carboxamide] | 71 ± 0.74 nM
45.7 ± 1.09 nM | 4.22 ± 0.03 nM | 0.34 ± 0.06 nM | 227 to 229 °C | – | – | CC(C)C1=CC2=CCC3C4(C)CC(CC3(C)C2CC1)OC4=O (centres unmarked) [Compound 2, Abieta-7, 13-dien-18-oic acid (18→2) lactone] | 64 ± 0.76 nM
71.2 ± 3.6 nM | 6.21 ± 0.04 nM | 0.74 ± 0.06 nM | – | – | – | CC(C)C1=CC2=CC(O)C3C(C)(C(=O)Oc4ccccc4)CCCC3(C)C2CC1 (centres unmarked) [Compound 5a, Phenyl-6-hydroxy-abieta-7,13-dien-18-oate] | 76 ± 0.89 nM
– | – | 0.29 ± 0.01 nM | – | 26.4 ± 1.8 nM | 3.58 ± 0.02 nM | CC(C)C1=CC2=CCC3C(C)(C(=O)Sc4ccccc4)CC(O)CC3(C)C2CC1 (centres unmarked) [Compound 4b, Phenyl-2-hydroxy-abieta-7,13-dien-18-thioate] | 45 ± 0.57 nM
112 ± 3.7 nM | 9.08 ± 0.08 nM | 0.91 ± 0.07 nM | 301 to 303 °C | – | – | CC(C)C1=CC2=CC3OC(=O)C4(C)CCCC(C)(C2CC1)C34 (centres unmarked) [Compound 3, Abieta-7,13-dien-18-oic acid (18→6) lactone] | 90 ± 0.88 nM
– | – | 56000 ± 22000 nM | – | – | – | CC(C)C1=CC2=CC[C@@H]3[C@](C)(CCC[C@@]3(C)C(=O)O)[C@H]2CC1 [Abietic acid] | 8800 ± 87 nM

Source: patent US10064837B1, “Abietic acid derivatives as anti-tumor agents” (KING SAUD UNIVERSITY, priority 2018, dated 2018)
